According to patent publication US20240425490A1, “SULFAMIDE RIBONUCLEOTIDE REDUCTASE (RNR) INHIBITORS AND USES THEREOF” (Boundless Bio, Inc., priority 2021, published 2024):

Each compound was assayed against T1, RNR (RNR1:RNR2 1:1) (Homo sapiens, UniProt P23921) (assay: RNR enzyme activity, rapid-fire mass spectrometry (RFMS) assay). Conditions: RNR 50 nM, CDP 5 μM, ATP 1 mM, 37° C., 45 min, compounds screened up to 50 μM, read-out: RF/MS IC50.
T1 sequence (P23921 1-792): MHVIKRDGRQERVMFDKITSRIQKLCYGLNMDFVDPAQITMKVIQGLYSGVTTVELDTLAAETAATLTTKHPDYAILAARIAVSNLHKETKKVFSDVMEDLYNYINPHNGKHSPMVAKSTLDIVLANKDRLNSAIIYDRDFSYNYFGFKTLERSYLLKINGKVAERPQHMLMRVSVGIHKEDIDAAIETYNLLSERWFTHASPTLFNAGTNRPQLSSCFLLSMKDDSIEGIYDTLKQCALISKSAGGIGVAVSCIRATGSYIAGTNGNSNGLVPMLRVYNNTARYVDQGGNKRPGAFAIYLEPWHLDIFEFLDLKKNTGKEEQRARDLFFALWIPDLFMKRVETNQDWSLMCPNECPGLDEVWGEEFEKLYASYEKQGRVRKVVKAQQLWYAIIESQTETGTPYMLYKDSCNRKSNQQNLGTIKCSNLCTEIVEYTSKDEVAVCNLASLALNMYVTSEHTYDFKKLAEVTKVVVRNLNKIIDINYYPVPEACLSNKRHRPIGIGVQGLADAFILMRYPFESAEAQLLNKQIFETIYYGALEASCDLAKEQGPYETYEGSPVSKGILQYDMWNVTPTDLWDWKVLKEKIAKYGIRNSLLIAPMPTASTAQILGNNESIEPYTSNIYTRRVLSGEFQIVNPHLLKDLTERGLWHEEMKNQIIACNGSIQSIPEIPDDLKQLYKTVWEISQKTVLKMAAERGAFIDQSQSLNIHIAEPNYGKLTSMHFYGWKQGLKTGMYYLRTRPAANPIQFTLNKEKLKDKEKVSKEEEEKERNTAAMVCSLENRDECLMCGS
Type: biochemical
Procedure: A rapid-fire mass spectrometry (RFMS) assay was used to assess RNR enzyme activity using a 384 well plate and a robotic platform.
The plate layout included two validated reference compounds (Triapine (3-AP) and Hydroxyurea (HU)): • A dose response in duplicate; top concentration: 5 μM (3-AP) and 250 μM (HU), semi-log dilutions. • Spike wells in triplicate randomly spotted at four concentrations: • 250 μM, 100 μM, 30 μM and 2 μM for HU • 5 μM, 2 μM, 0.6 μM and 0.04 μM for 3-AP
First, the multidrop pipes were saturated for 30 minutes with enzymatic solution. Then 30 μL of Stop solution was distributed in column 24. Next, 15 μL of enzyme was distributed in column 1 to 24. Next, a pre-incubation step of 15 minutes at room temperature occurred, followed by distribution of 15 μL of substrate solution (column 1 to 24). Next, the plate was incubated for 45 minutes at 37° C. 30 μL of Stop solution was distributed to columns 1 to 23.
The final parameters for the enzyme reactions were: • Incubation: 37° C., 45 min • [CDP]: 5 μM; [ATP]: 1 mM; [NADPH]: No • [RNR] final: 50 nM with 1:1 (RNR1:RNR2) ratio • Final volume: 30 μL • Stop solution: 6% HCOOH containing 2 μM of 15

Compound	IC50 [µM]
Cc1ccc(F)c(C(C)[C@H](NS(=O)(=O)N2CCC(c3ccccc3)CC2)c2n[nH]c(=O)o2)c1C (stereo partly drawn) [Example 34, N-((1S)-2-(6-fluoro-2,3-dimethylphenyl)-1-(5-oxo-4,5-dihydro-1,3,4-oxadiazol-2-yl)propyl)-4-phenylpiperidine-1-sulfonamide]	1 to 10
Cc1ccc(F)c(C(C)[C@H](NS(=O)(=O)N2CCC(C3NC(=O)NC3=O)CC2)c2n[nH]c(=O)o2)c1C (stereo partly drawn) [Example 60, 4-(2,5-dioxoimidazolidin-4-yl)-N-((1S)-2-(6-fluoro-2,3-dimethylphenyl)-1-(5-oxo-4,5-dihydro-1,3,4-oxadiazol-2-yl)propyl)piperidine-1-sulfonamide]	0.1 to 1
CC(=O)N1CCN(S(=O)(=O)N[C@H](c2n[nH]c(=O)o2)C(C)c2c(F)ccc(C)c2C)CC1 (stereo partly drawn) [Example 37, 4-acetyl-N-((1S)-2-(6-fluoro-2,3-dimethylphenyl)-1-(5-oxo-4,5-dihydro-1,3,4-oxadiazol-2-yl)propyl)piperazine-1-sulfonamide]	1 to 10
Cc1ccc(F)c([C@@H](C)[C@H](NS(=O)(=O)N2CCC(CCl)CC2)c2n[nH]c(=O)o2)c1C [Example 41, 4-(chloromethyl)-N-((1S,2R)-2-(6-fluoro-2,3-dimethylphenyl)-1-(5-oxo-4,5-dihydro-1,3,4-oxadiazol-2-yl)propyl)piperidine-1-sulfonamide]	0.1 to 1
Cc1ccc(F)c([C@@H](C)[C@H](NS(=O)(=O)N2CCC(C(F)F)CC2)c2n[nH]c(=O)o2)c1C [Example 45, 4-(difluoromethyl)-N-((1S,2R)-2-(6-fluoro-2,3-dimethylphenyl)-1-(5-oxo-4,5-dihydro-1,3,4-oxadiazol-2-yl)propyl)piperidine-1-sulfonamide]	1 to 10
CC(=O)NC1CCN(S(=O)(=O)N[C@H](c2n[nH]c(=O)o2)[C@@H](C)c2c(F)ccc(C)c2C)CC1 [Example 30, N-(1-(N-((1S,2S)-2-(6-fluoro-2,3-dimethylphenyl)-1-(5-oxo-4,5-dihydro-1,3,4-oxadiazol-2-yl)propyl)sulfamoyl)piperidin-4-yl)acetamide]	1 to 10
Cc1ccc(F)c([C@H](C)[C@H](NS(=O)(=O)N2CCC(F)(F)CC2)c2n[nH]c(=O)o2)c1C [Example 2, 4,4-difluoro-N-[(1S,2S)-2-(6-fluoro-2,3-dimethylphenyl)-1-(5-oxo-4H-1,3,4-oxadiazol-2-yl)propyl]piperidine-1-sulfonamide]	10 to 100
Cc1ccc(F)c([C@H](C)[C@H](NS(=O)(=O)N2CCC(C3CCCCC3)CC2)c2n[nH]c(=O)o2)c1C [Example 10, 4-cyclohexyl-N-((1S,2S)-2-(6-fluoro-2,3-dimethylphenyl)-1-(5-oxo-4,5-dihydro-1,3,4-oxadiazol-2-yl)propyl)piperidine-1-sulfonamide]	10 to 100
Cc1ccc(F)c(C(C)[C@H](NS(=O)(=O)N2CCCC(C#N)C2)c2n[nH]c(=O)o2)c1C (stereo partly drawn) [Example 26, 3-cyano-N-((1S)-2-(6-fluoro-2,3-dimethylphenyl)-1-(5-oxo-4,5-dihydro-1,3,4-oxadiazol-2-yl)propyl)piperidine-1-sulfonamide]	1 to 10
Cc1ccc(F)c([C@H](C)[C@H](NS(=O)(=O)N2CCC(CCl)CC2)c2n[nH]c(=O)o2)c1C [Example 40, 4-(chloromethyl)-N-((1S,2S)-2-(6-fluoro-2,3-dimethylphenyl)-1-(5-oxo-4,5-dihydro-1,3,4-oxadiazol-2-yl)propyl)piperidine-1-sulfonamide]	10 to 100
Cc1ccc(F)c([C@@H](C)[C@H](NS(=O)(=O)N2CCCC(C(C)O)C2)c2n[nH]c(=O)o2)c1C (mixture of isomers) [Example 27, rac-N-((1R,2S)-2-(6-fluoro-2,3-dimethylphenyl)-1-(5-oxo-4,5-dihydro-1,3,4-oxadiazol-2-yl)propyl)-3-(1-hydroxyethyl)piperidine-1-sulfonamide]	0.1 to 1
CC(=O)NC1CCN(S(=O)(=O)N[C@H](c2n[nH]c(=O)o2)C(C)c2c(F)ccc(C)c2C)CC1 (stereo partly drawn) [Example 29, N-(1-(N-((1S)-2-(6-fluoro-2,3-dimethylphenyl)-1-(5-oxo-4,5-dihydro-1,3,4-oxadiazol-2-yl)propyl)sulfamoyl)piperidin-4-yl)acetamide]	10 to 100
Cc1ccc(F)c(C(C)[C@H](NS(=O)(=O)N2CCCCC2C#N)c2n[nH]c(=O)o2)c1C (stereo partly drawn) [Example 3, 2-cyano-N-[(1S)-2-(6-fluoro-2,3-dimethylphenyl)-1-(5-oxo-4H-1,3,4-oxadiazol-2-yl)propyl]piperidine-1-sulfonamide]	1 to 10

The remaining lines, values ahead:

IC50 [µM]	Compound
0.1 to 1	Cc1ccc(F)c(C(C)[C@H](NS(=O)(=O)N2CCC3(CC2)OCc2ccccc23)c2n[nH]c(=O)o2)c1C (stereo partly drawn) [Example 73, N-((1S)-2-(6-fluoro-2,3-dimethylphenyl)-1-(5-oxo-4,5-dihydro-1,3,4-oxadiazol-2-yl)propyl)-3H-spiro[isobenzofuran-1,4′-piperidine]-1′-sulfonamide]
1 to 10	Cc1ccc(F)c(C(C)[C@H](NS(=O)(=O)N2CCN(CC(F)F)CC2)c2n[nH]c(=O)o2)c1C (stereo partly drawn) [Example 124, 4-(2,2-difluoroethyl)-N-((1S)-2-(6-fluoro-2,3-dimethylphenyl)-1-(5-oxo-4,5-dihydro-1,3,4-oxadiazol-2-yl)propyl)piperazine-1-sulfonamide]
1 to 10	Cc1ccc(F)c([C@H](C)[C@H](NS(=O)(=O)N2CCC(C)CC2)c2n[nH]c(=O)o2)c1C [Example 116, N-((1S,2S)-2-(6-fluoro-2,3-dimethylphenyl)-1-(5-oxo-4,5-dihydro-1,3,4-oxadiazol-2-yl)propyl)-4-methylpiperidine-1-sulfonamide]
0.1 to 1	Cc1ccc(F)c([C@@H](C)[C@H](NS(=O)(=O)N2CCC3(CC2)OCCCO3)c2n[nH]c(=O)o2)c1C [Example 85, N-((1S,2R)-2-(6-fluoro-2,3-dimethylphenyl)-1-(5-oxo-4,5-dihydro-1,3,4-oxadiazol-2-yl)propyl)-1,5-dioxa-9-azaspiro[5.5]undecane-9-sulfonamide]
0.1 to 1	Cc1ccc(F)c(C(C)[C@H](NS(=O)(=O)N2CCC(c3noc4ccc(F)cc34)CC2)c2n[nH]c(=O)o2)c1C (stereo partly drawn) [Example 74, N-((1S)-2-(6-fluoro-2,3-dimethylphenyl)-1-(5-oxo-4,5-dihydro-1,3,4-oxadiazol-2-yl)propyl)-4-(5-fluorobenzo[d]isoxazol-3-yl)piperidine-1-sulfonamide]
10 to 100	Cc1ccc(F)c(C(C)[C@H](NS(=O)(=O)N2CCC3(CC2)COC(=O)O3)c2n[nH]c(=O)o2)c1C (stereo partly drawn) [Example 67, N-((1S)-2-(6-fluoro-2,3-dimethylphenyl)-1-(5-oxo-4,5-dihydro-1,3,4-oxadiazol-2-yl)propyl)-2-oxo-1,3-dioxa-8-azaspiro[4.5]decane-8-sulfonamide]
≤ 0.1	Cc1ccc(F)c([C@@H](C)[C@H](NS(=O)(=O)N2CCC(Cl)(Cl)CC2)c2n[nH]c(=O)o2)c1C [Example 97, 4,4-dichloro-N-((1S,2R)-2-(6-fluoro-2,3-dimethylphenyl)-1-(5-oxo-4,5-dihydro-1,3,4-oxadiazol-2-yl)propyl)piperidine-1-sulfonamide]
0.1 to 1	Cc1ccc(F)c([C@@H](C)[C@H](NS(=O)(=O)N2CCC(Br)CC2)c2n[nH]c(=O)o2)c1C [Example 100, 4-bromo-N-((1S,2R)-2-(6-fluoro-2,3-dimethylphenyl)-1-(5-oxo-4,5-dihydro-1,3,4-oxadiazol-2-yl)propyl)piperidine-1-sulfonamide]
1 to 10	Cc1ccc(F)c([C@H](C)[C@H](NS(=O)(=O)N2CCC3(CC2)CC(F)(F)C3)c2n[nH]c(=O)o2)c1C [Example 95, 2,2-difluoro-N-((1S,2S)-2-(6-fluoro-2,3-dimethylphenyl)-1-(5-oxo-4,5-dihydro-1,3,4-oxadiazol-2-yl)propyl)-7-azaspiro[3.5]nonane-7-sulfonamide]
0.1 to 1	Cc1ccc(F)c([C@@H](C)[C@H](NS(=O)(=O)N2CCC3(CC2)CC(=O)N(C)C3)c2n[nH]c(=O)o2)c1C [Example 76, N-((1S,2R)-2-(6-fluoro-2,3-dimethylphenyl)-1-(5-oxo-4,5-dihydro-1,3,4-oxadiazol-2-yl)propyl)-2-methyl-3-oxo-2,8-diazaspiro[4.5]decane-8-sulfonamide]
